According to the supplement of paper PMC10307832:

Experiments:
NVP-TAE684 = compound: COc1cc(N2CCC(N3CCN(C)CC3)CC2)ccc1Nc1ncc(Cl)c(Nc2ccccc2S(=O)(=O)C(C)C)n1 [NVP-TAE684]; assay: relative viability (nuclei count vs DMSO), 5 days (fraction); higher = more cells survive
Outline: (§1)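 Five library-drug doses, separated by factors of √10, were pinned into 1536-well plates holding lung cancer cell lines after an overnight stay at 37 °C. Cells were fixed, permeabilised and Hoechst-stained in one step after 5 days without medium change, then imaged at 4×. Viability compares treated-well with vehicle-well nuclei, counted in MetaXpress, as a median across plates. Passing plates had control CV below 25% and at least one doubling.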

CUDC-101 = compound: C#Cc1cccc(Nc2ncnc3cc(OC)c(OCCCCCCC(=O)NO)cc23)c1 [CUDC-101]; assay: as above
Outline: as §1

Cell Line	relative viability (NVP-TAE684; 0.2 µM)	relative viability (NVP-TAE684; 0.6325 µM)	relative viability (NVP-TAE684; 2 µM)	relative viability (CUDC-101; 0.01 µM)	relative viability (CUDC-101; 0.03162 µM)	relative viability (CUDC-101; 0.1 µM)	relative viability (CUDC-101; 0.3162 µM)	relative viability (CUDC-101; 1 µM)
201T	1.05	0.958	0.875	0.984	0.97	0.964	1.03	0.829
A549	1.1	0.951	0.585	1.04	0.967	1	1.04	0.799
A-427	1.11	0.847	0.863	1.02	0.978	0.949	0.932	0.738
ABC-1	0.969	0.624	0.537	0.95	0.978	0.938	0.812	0.453
BEN	0.933	0.73	0.876	1.11	0.833	1.06	0.856	0.708
CAL-12T	0.904	0.956	0.466	1.16	1.03	0.993	1.05	0.951
COR-L23	0.972	1	0.481	1.11	0.99	1.05	0.974	0.641
COR-L 105	1.03	0.68	0.452	0.951	1.01	0.815	0.906	0.482
Calu-6	0.937	0.992	0.758	1.03	0.998	0.979	0.993	0.857
ChaGo-K-1	0.98	0.878	0.843	0.923	0.965	1.02	1.06	0.787
EBC-1	0.836	1.03	0.744	1	0.89	0.975	0.785	0.582
EKVX	0.862	0.873	0.719	1.02	1.04	0.883	1.1	0.772
EMC-BAC-2	0.966	0.894	0.679	1.05	0.966	1.13	0.9	0.616
EPLC-272H	0.9	0.667	0.688	1.04	0.9	0.838	0.79	0.418
H3255	0.947	0.859	0.754	1	0.912	0.454	0.658	0.273
HARA		0.838	0.667	1.01	0.942	0.774	0.861	0.39
HCC-15	0.913	0.973	0.808	0.969	0.989	1.01	1.11	0.897
HCC-44	1.09	0.969	0.749	0.858	1.03	1.02	0.951	0.968
HCC-78	0.824	0.658	0.495	1.01	0.918	0.954	0.809	0.416
HCC-366	1.01	0.979	1.07	1.03	0.997	1.01	1.03	0.931
HCC-827	1.09	1.02	1.04	1.08	0.709	0.247	0.198	0.192
HOP-62		1	1.04	0.971	1.07	1.06	1	0.941
IA-LM	0.712	0.885	0.75	1.01	0.861	1.06	0.879	0.697
LC-2-ad	0.975	0.848	0.654	1.01	0.989	1.03	0.963	0.758
LCLC-97TM1	0.897	0.735	0.471	1.05	0.917	1.06	1.02	0.832
LCLC-103H	1.08	0.956	0.938	0.987	1.01	1.06	1.05	0.926
LK-2	1.09	0.924	0.356	1.09	0.978	0.948	0.885	0.546

Cell Line	relative viability (NVP-TAE684; 0.2 µM)	relative viability (NVP-TAE684; 0.6325 µM)	relative viability (NVP-TAE684; 2 µM)	relative viability (CUDC-101; 0.01 µM)	relative viability (CUDC-101; 0.03162 µM)	relative viability (CUDC-101; 0.1 µM)	relative viability (CUDC-101; 0.3162 µM)	relative viability (CUDC-101; 1 µM)
LOU-NH91	0.966	0.833	0.703	1.06	0.846	0.932	0.872	0.646
LU99A	0.998	0.942	0.616	1.07	0.877	0.808	0.9	0.58
LXF-289	1.02	1.01	0.907	1.01	1.03	0.997	0.971	0.908
NCI-H23	0.989	0.796	0.538	1.13	1	1.1	1.11	0.922
NCI-H322M	1.02	0.795	0.636	0.889	0.846	0.768	0.739	0.474
NCI-H358	0.898	0.791	0.289	1.04	0.873	0.91	0.804	0.63
NCI-H441	0.898	1.15	0.587	1.04	1.09	0.981	1.13	0.844
NCI-H460	1.08	1.02		1	0.902	0.977	1.01	0.996
NCI-H520	0.969	0.986	0.767	0.997	0.914	0.982	1.02	0.686
NCI-H522	0.953	0.874	0.923	0.879	1.09	1.01	0.979	0.743
NCI-H596	0.959	1.03		0.97	1.01	1.04	1.05	0.88
NCI-H647	0.924	1.01	0.723	1.08	0.899	1.04	0.987	0.801
NCI-H650	1.01	0.662	0.622	1.13	1.02	1.14	0.98	0.849
NCI-H661	0.99	0.972	0.95	1.01	0.907	1.02	0.945	0.637
NCI-H727	0.806	0.91	0.515	0.954	0.869	1.04	0.827	0.629
NCI-H838		0.792	0.545	0.988	0.922	0.992	1.02	0.871
NCI-H1299	1.05	1.01		1.01	0.998	1.02	1.01	0.919
NCI-H1355	0.961	0.921	0.75	1.03	0.957	0.967	0.976	0.883
NCI-H1395	1.01	0.777	0.977	1.05	0.883	0.952	0.974	0.648
NCI-H1437		0.957	0.758	0.994	0.985	1.01	1.06	0.981
NCI-H1563	0.955	0.95		0.968	0.869	1.06	0.917	0.893
NCI-H1623	0.945	0.868	0.852	1.11	0.858	0.82	0.813	0.552
NCI-H1648	0.715	0.713	0.363	1.15	0.59	0.758	0.741	0.376
NCI-H1650	0.782	0.745	0.45	0.895	0.764	0.818	0.799	0.587
NCI-H1651	0.946	0.966	0.868	1.05	0.984	0.991	1.08	0.932
NCI-H1666	0.922	0.933	0.812	1.04	0.92	0.992	1.05	0.858
NCI-H1703	1.07	0.845		0.997	0.743	1.1	1.19	0.904

Cell Line	relative viability (NVP-TAE684; 0.2 µM)	relative viability (NVP-TAE684; 0.6325 µM)	relative viability (NVP-TAE684; 2 µM)	relative viability (CUDC-101; 0.01 µM)	relative viability (CUDC-101; 0.03162 µM)	relative viability (CUDC-101; 0.1 µM)	relative viability (CUDC-101; 0.3162 µM)	relative viability (CUDC-101; 1 µM)
NCI-H1734	0.983	0.901	0.705	1.01	0.942	1.05	0.95	0.703
NCI-H1755	1.04	1.04	0.892	0.998	0.987	1.02	1.04	0.98
NCI-H1792	0.844	0.708	0.594	0.928	0.896	0.853	1.04	0.809
NCI-H1793	0.826	0.875	0.816	0.95	0.707	0.825	0.92	0.613
NCI-H1915	1.02	1.02	0.949	0.981	1.03	0.956	0.936	0.793
NCI-H1944	1.08	0.939	0.94	0.981	0.884	0.899	0.817	0.574
NCI-H1975	0.974	0.926	0.608	0.996	0.917	0.934	1.03	0.91
NCI-H1993	0.813	0.885	0.703	1.04	0.916	0.833	0.95	0.664
NCI-H2009	0.993	0.936	0.762	1	0.999	1.04	1.04	0.914
NCI-H2023	1.02	0.756	0.265	1.02	0.884	0.962	1.15	0.87
NCI-H2085	0.986		0.914	1.01	1.03	1.02	0.981	0.893
NCI-H2087	1.09		0.989	1.24	1.06	0.95	1.1	0.884
NCI-H2126	0.991	0.959	0.684	1.04	0.957	1.03	0.94	0.81
NCI-H2170	0.995	0.969	1.04	0.974	0.987	1.06	1.01	0.9
NCI-H2228	0.632	0.36	0.29	1.02	1.23	0.946	1.09	1.07
NCI-H2342	0.917	0.849	0.647	1.06	0.931	0.973	0.996	0.923
NCI-H2347	0.964	0.932	0.986	1.1	1.04	1.07	1.11	0.972
NCI-H2405	1.06	0.869	0.574	1.06	0.984	1.09	1.1	0.951
NCI-H3122	0.236	0.164	0.126	0.942	0.995	1.03	1.01	0.994
PC-3 [JPC-3]	1.08	0.945	0.984	1.05	0.972	0.522	0.542	0.431
PC-14	0.998	1.01	0.921	1.12	0.837	0.602	0.537	0.273
RERF-LC-KJ	0.971	0.969	0.79	1	1.02	1.01	0.98	0.801
SK-LU-1	1.12	0.962	0.733	1.19	0.988	1.07	0.963	0.87
SK-MES-1	1.02		0.714	0.968	0.984	0.989	0.971	0.683
SW 900	0.96	0.754	0.776	0.927	0.881	0.803	0.878	0.624
SW 1573	0.948	1.02	0.645	1.16	0.976	1.09	1.07	0.734
